Measurements reported in PubChem BioAssay AID1963835 (Molecular Pharmacology Branch, DTP, NCI, 2024).

Tested on: 699152-130-R-J1-PDC complex spheroid viability
Test: Anticancer human tumor 699152-130-R-J1-PDC patient-derived pancreatic carcinoma cell line growth inhibition [POLQ]
Settings: for IC50: curve of first compound; for viability, T/C: stronger effect = lower value
Outline: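 Three-cell-type spheroids modelling solid tumor plus stroma served as the readout system; POL inhibitors were tested individually and in combination, concentration ranges set by clinical Cmax where known.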

[1] = second compound 0.0316 µM, first compound 0.0316 µM
[2] = second compound 0.0316 µM, first compound 0.1 µM
[3] = second compound 0.0316 µM, first compound 0.316 µM
[4] = second compound 0.0316 µM, first compound 1 µM
[5] = second compound 0.0316 µM, first compound 3.16 µM
[6] = second compound 0.0316 µM, first compound 10 µM
[7] = second compound 0.1 µM, first compound 0.0316 µM
[8] = second compound 0.1 µM, first compound 0.1 µM
[9] = second compound 0.1 µM, first compound 0.316 µM
[10] = second compound 0.1 µM, first compound 1 µM
[11] = second compound 0.1 µM, first compound 3.16 µM
[12] = second compound 0.1 µM, first compound 10 µM
[13] = second compound 0.316 µM, first compound 0.0316 µM
[14] = second compound 0.316 µM, first compound 0.1 µM
[15] = second compound 0.316 µM, first compound 0.316 µM
[16] = second compound 0.316 µM, first compound 1 µM
[17] = second compound 0.316 µM, first compound 3.16 µM
[18] = second compound 0.316 µM, first compound 10 µM
[19] = second compound 1 µM, first compound 0.0316 µM
[20] = second compound 1 µM, first compound 0.1 µM
[21] = second compound 1 µM, first compound 0.316 µM
[22] = second compound 1 µM, first compound 1 µM
[23] = second compound 1 µM, first compound 3.16 µM
[24] = second compound 1 µM, first compound 10 µM
[25] = second compound 3.16 µM, first compound 0.0316 µM
[26] = second compound 3.16 µM, first compound 0.1 µM
[27] = second compound 3.16 µM, first compound 0.316 µM
[28] = second compound 3.16 µM, first compound 1 µM
[29] = second compound 3.16 µM, first compound 3.16 µM
[30] = second compound 3.16 µM, first compound 10 µM
[31] = second compound 10 µM, first compound 0.0316 µM
[32] = second compound 10 µM, first compound 0.1 µM
[33] = second compound 10 µM, first compound 0.316 µM
[34] = second compound 10 µM, first compound 1 µM
[35] = second compound 10 µM, first compound 3.16 µM
[36] = second compound 10 µM, first compound 10 µM
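Note: spheroids exposed to agents for 7 days before viability reading.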
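Throughout, for viability, T/C: percent of DMSO vehicle control viability so 100% = vehicle and 0% = no viable signal.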

## COc1ccc([C@@H](O)c2cc(-c3ncnc4cc(N5CCOCC5)ccc34)c(F)cc2Cl)nn1 + Nc1ccc(C#CCN(C(=O)Cc2ncc(C(F)(F)F)cc2C(F)(F)F)c2ccc(F)cc2)nn1
Second compound 0.0316 µM
  IC50: 3.01 µM
Second compound 0.1 µM
  IC50: 2.89 µM
Second compound 0.316 µM
  IC50: 3.05 µM
Second compound 1 µM
  IC50: 3.39 µM
Second compound 3.16 µM
  IC50: 3.54 µM
Second compound 10 µM
  IC50: 3.89 µM
[1]
  viability, T/C: 89.7%
[2]
  viability, T/C: 95.3%
[3]
  viability, T/C: 82.5%
[4]
  viability, T/C: 78.8%
[5]
  viability, T/C: 48.1%
[6]
  viability, T/C: 19.2%
[7]
  viability, T/C: 95.2%
[8]
  viability, T/C: 93.3%
[9]
  viability, T/C: 91.1%
[10]
  viability, T/C: 76.4%
[11]
  viability, T/C: 47.9%
[12]
  viability, T/C: 25.5%
[13]
  viability, T/C: 114%
[14]
  viability, T/C: 93.2%
[15]
  viability, T/C: 92.5%
[16]
  viability, T/C: 70.9%
[17]
  viability, T/C: 50.2%
[18]
  viability, T/C: 19.3%
[19]
  viability, T/C: 99.5%
[20]
  viability, T/C: 100%
[21]
  viability, T/C: 96.7%
[22]
  viability, T/C: 85.9%
[23]
  viability, T/C: 51.8%
[24]
  viability, T/C: 22.5%
[25]
  viability, T/C: 101%
[26]
  viability, T/C: 92.6%
[27]
  viability, T/C: 90.5%
[28]
  viability, T/C: 83.4%
[29]
  viability, T/C: 52.2%
[30]
  viability, T/C: 21.8%
[31]
  viability, T/C: 116%
[32]
  viability, T/C: 105%
[33]
  viability, T/C: 104%
[34]
  viability, T/C: 84%
[35]
  viability, T/C: 54.9%
[36]
  viability, T/C: 26%

## CC1COCCN1c1cc(-c2ccnn2C)c2ccnc(-c3ccn[nH]3)c2n1 (stereo not given) + Cc1cccc(N(C)C(=O)C2C(O)CCN2c2nc(C)cc(C(F)(F)F)c2C#N)c1
Second compound 0.0316 µM
  IC50: 2.33 µM
Second compound 0.1 µM
  IC50: > 10 µM
Second compound 0.316 µM
  IC50: 3.97 µM
Second compound 1 µM
  IC50: 5.14 µM
Second compound 3.16 µM
  IC50: > 10 µM
Second compound 10 µM
  IC50: > 10 µM
[1]
  viability, T/C: 98.3%
[2]
  viability, T/C: 99.1%
[3]
  viability, T/C: 74.4%
[4]
  viability, T/C: 58%
[5]
  viability, T/C: 47.8%
[6]
  viability, T/C: 45.4%
[7]
  viability, T/C: 93.9%
[8]
  viability, T/C: 90.3%
[9]
  viability, T/C: 75.2%
[10]
  viability, T/C: 59.4%
[11]
  viability, T/C: 62.2%
[12]
  viability, T/C: 56.1%
[13]
  viability, T/C: 92.2%
[14]
  viability, T/C: 86.8%
[15]
  viability, T/C: 75.5%
[16]
  viability, T/C: 58.6%
[17]
  viability, T/C: 46.3%
[18]
  viability, T/C: 51.8%
[19]
  viability, T/C: 107%
[20]
  viability, T/C: 89%
[21]
  viability, T/C: 70.9%
[22]
  viability, T/C: 59%
[23]
  viability, T/C: 50.2%
[24]
  viability, T/C: 48.8%
[25]
  viability, T/C: 109%
[26]
  viability, T/C: 108%
[27]
  viability, T/C: 69.4%
[28]
  viability, T/C: 55.2%
[29]
  viability, T/C: 51.1%
[30]
  viability, T/C: 51.3%
[31]
  viability, T/C: 94.7%
[32]
  viability, T/C: 86.5%
[33]
  viability, T/C: 75.8%
[34]
  viability, T/C: 65.4%
[35]
  viability, T/C: 52.6%
[36]
  viability, T/C: 53.8%

## CCc1cc2c(N3CCc4c(cc(Cn5ccnc5)cc4-c4cn(C)nc4C(F)(F)F)C3=O)cc(C)nc2c(OC)n1 + Nc1ccc(C#CCN(C(=O)Cc2ncc(C(F)(F)F)cc2C(F)(F)F)c2ccc(F)cc2)nn1
Second compound 0.0316 µM
  IC50: > 10 µM
Second compound 0.1 µM
  IC50: > 10 µM
Second compound 0.316 µM
  IC50: > 10 µM
Second compound 1 µM
  IC50: > 10 µM
Second compound 3.16 µM
  IC50: > 10 µM
Second compound 10 µM
  IC50: > 10 µM
[1]
  viability, T/C: 85.8%
[2]
  viability, T/C: 89.8%
[3]
  viability, T/C: 97.3%
[4]
  viability, T/C: 101%
[5]
  viability, T/C: 99.4%
[6]
  viability, T/C: 106%
[7]
  viability, T/C: 87.7%
[8]
  viability, T/C: 88.8%
[9]
  viability, T/C: 96.9%
[10]
  viability, T/C: 93.4%
[11]
  viability, T/C: 100%
[12]
  viability, T/C: 107%
[13]
  viability, T/C: 89.5%
[14]
  viability, T/C: 94.2%
[15]
  viability, T/C: 101%
[16]
  viability, T/C: 89.7%
[17]
  viability, T/C: 97%
[18]
  viability, T/C: 101%
[19]
  viability, T/C: 86.5%
[20]
  viability, T/C: 93.6%
[21]
  viability, T/C: 95.6%
[22]
  viability, T/C: 95.5%
[23]
  viability, T/C: 100%
[24]
  viability, T/C: 104%
[25]
  viability, T/C: 105%
[26]
  viability, T/C: 95.7%
[27]
  viability, T/C: 102%
[28]
  viability, T/C: 106%
[29]
  viability, T/C: 107%
[30]
  viability, T/C: 106%
[31]
  viability, T/C: 99.8%
[32]
  viability, T/C: 118%
[33]
  viability, T/C: 110%
[34]
  viability, T/C: 107%
[35]
  viability, T/C: 117%
[36]
  viability, T/C: 115%

## C=CC(=O)N1CCN(c2nc(=O)n(-c3c(C)ccnc3C(C)C)c3nc(-c4c(O)cccc4F)c(F)cc23)C(C)C1 (stereo not given) + Cc1cccc(N(C)C(=O)C2C(O)CCN2c2nc(C)cc(C(F)(F)F)c2C#N)c1
Second compound 0.0316 µM
  IC50: > 10 µM
Second compound 0.1 µM
  IC50: > 10 µM
Second compound 0.316 µM
  IC50: > 10 µM
Second compound 1 µM
  IC50: > 10 µM
Second compound 3.16 µM
  IC50: > 10 µM
Second compound 10 µM
  IC50: > 10 µM
[1]
  viability, T/C: 92.9%
[2]
  viability, T/C: 99.6%
[3]
  viability, T/C: 102%
[4]
  viability, T/C: 110%
[5]
  viability, T/C: 113%
[6]
  viability, T/C: 115%
[7]
  viability, T/C: 102%
[8]
  viability, T/C: 89.4%
[9]
  viability, T/C: 113%
[10]
  viability, T/C: 93.8%
[11]
  viability, T/C: 119%
[12]
  viability, T/C: 105%
[13]
  viability, T/C: 99.9%
[14]
  viability, T/C: 103%
[15]
  viability, T/C: 103%
[16]
  viability, T/C: 103%
[17]
  viability, T/C: 114%
[18]
  viability, T/C: 110%
[19]
  viability, T/C: 108%
[20]
  viability, T/C: 89.7%
[21]
  viability, T/C: 102%
[22]
  viability, T/C: 113%
[23]
  viability, T/C: 108%
[24]
  viability, T/C: 109%
[25]
  viability, T/C: 92.2%
[26]
  viability, T/C: 91.3%
[27]
  viability, T/C: 98.8%
[28]
  viability, T/C: 105%
[29]
  viability, T/C: 114%
[30]
  viability, T/C: 104%
[31]
  viability, T/C: 103%
[32]
  viability, T/C: 104%
[33]
  viability, T/C: 108%
[34]
  viability, T/C: 109%
[35]
  viability, T/C: 120%
[36]
  viability, T/C: 119%

## O=C(c1cc(Cc2n[nH]c(=O)c3ccccc23)ccc1F)N1CCN(C(=O)C2CC2)CC1 + Cc1cccc(N(C)C(=O)C2C(O)CCN2c2nc(C)cc(C(F)(F)F)c2C#N)c1
Second compound 0.0316 µM
  IC50: > 10 µM
Second compound 0.1 µM
  IC50: > 10 µM
Second compound 0.316 µM
  IC50: > 10 µM
Second compound 1 µM
  IC50: > 10 µM
Second compound 3.16 µM
  IC50: > 10 µM
Second compound 10 µM
  IC50: > 10 µM
[1]
  viability, T/C: 91.2%
[2]
  viability, T/C: 96.4%
[3]
  viability, T/C: 82.7%
[4]
  viability, T/C: 96.1%
[5]
  viability, T/C: 104%
[6]
  viability, T/C: 69.6%
[7]
  viability, T/C: 94%
[8]
  viability, T/C: 104%
[9]
  viability, T/C: 93.1%
[10]
  viability, T/C: 94.8%
[11]
  viability, T/C: 99.5%
[12]
  viability, T/C: 75.5%
[13]
  viability, T/C: 88.3%
[14]
  viability, T/C: 97.1%
[15]
  viability, T/C: 97.3%
[16]
  viability, T/C: 111%
[17]
  viability, T/C: 107%
[18]
  viability, T/C: 81%
[19]
  viability, T/C: 103%
[20]
  viability, T/C: 94.8%
[21]
  viability, T/C: 92.4%
[22]
  viability, T/C: 102%
[23]
  viability, T/C: 87.3%
[24]
  viability, T/C: 75.7%
[25]
  viability, T/C: 101%
[26]
  viability, T/C: 104%
[27]
  viability, T/C: 91.1%
[28]
  viability, T/C: 97.1%
[29]
  viability, T/C: 92.6%
[30]
  viability, T/C: 72%
[31]
  viability, T/C: 94.6%
[32]
  viability, T/C: 90.6%
[33]
  viability, T/C: 105%
[34]
  viability, T/C: 84.9%
[35]
  viability, T/C: 99.1%
[36]
  viability, T/C: 78.9%
